Measurements taken from ChEMBL document CHEMBL4699661, “Synthesis and Biological Characterization of Cyclic Disulfide-Containing Peptide Analogs of the Multifunctional Opioid/Neuropeptide FF Receptor Agonists That Produce Long-Lasting and Nontolerant Antinociception” (J Med Chem, 2020).
The source made the active and inactive calls. No cut-off for these calls is given here.

Key:
[1] = target: T1, Delta-type opioid receptor (Homo sapiens, UniProt P41143); assay: Agonist activity at delta opioid receptor (unknown origin) expressed in HEK293-A cells assessed as inhibition of forskolin-stimulated cAMP accumulation incubated for 30 mins by competition PKA binding assay; format: functional, cell-based
[2] = test system: Mus musculus; assay: Analgesic activity in icv dosed Kunming mouse by radiant heat tail flick test; format: functional
[3] = test system: Mus musculus; assay: Analgesic activity in sc dosed Kunming mouse dosed once daily for 8 consecutive days by radiant heat tail flick test; format: functional, organism-based; conditions: time 8.0 day
[4] = target: T2, Neuropeptide FF receptor 1 (Homo sapiens, UniProt Q9GZQ6); assay: Agonist activity at NPFFR1 (unknown origin) expressed in HEK293-A cells assessed as inhibition of forskolin-stimulated cAMP accumulation incubated for 30 mins by competition PKA binding assay; format: functional, cell-based
[5] = test system: Mus musculus; assay: Analgesic activity in sc dosed Kunming mouse by radiant heat tail flick test; format: functional
[6] = Half life in 15% mouse brain at 0.01 mM by RP-HPLC analysis; format: ADME, tissue-based
[7] = Half life in 100% mouse plasma at 0.01 mM by RP-HPLC analysis; format: ADME, cell-free
[8] = target: T1, Delta-type opioid receptor; assay: Agonist activity at delta opioid receptor (unknown origin) expressed in HEK293-A cells assessed as inhibition of forskolin-stimulated cAMP accumulation incubated for 30 mins by competition PKA binding assay relative to control; format: functional, cell-based; conditions: filed as agonist
[9] = test system: Mus musculus; assay: Analgesic activity in sc dosed Kunming mouse assessed as time duration during which antinociception lasted by radiant heat tail flick test; format: functional
[10] = test system: Mus musculus; assay: Analgesic activity in icv dosed Kunming mouse dosed once daily for 8 consecutive days by radiant heat tail flick test; format: functional, organism-based; conditions: time 8.0 day
[11] = target: Kappa-type opioid receptor (Homo sapiens, UniProt P41145); assay: Agonist activity at kappa opioid receptor (unknown origin) expressed in HEK293-A cells assessed as inhibition of forskolin-stimulated cAMP accumulation incubated for 30 mins by competition PKA binding assay; format: functional, cell-based
[12] = target: T3, Neuropeptide FF receptor 2 (Homo sapiens, UniProt Q9Y5X5); assay: Agonist activity at NPFFR2 (unknown origin) expressed in HEK293-A cells assessed as inhibition of forskolin-stimulated cAMP accumulation incubated for 30 mins by competition PKA binding assay relative to control; format: functional, cell-based; conditions: filed as agonist
[13] = target: T2, Neuropeptide FF receptor 1; assay: Agonist activity at NPFFR1 (unknown origin) expressed in HEK293-A cells assessed as inhibition of forskolin-stimulated cAMP accumulation incubated for 30 mins by competition PKA binding assay relative to control; format: functional, cell-based; conditions: filed as agonist
[14] = target: T3, Neuropeptide FF receptor 2; assay: Agonist activity at NPFFR2 (unknown origin) expressed in HEK293-A cells assessed as inhibition of forskolin-stimulated cAMP accumulation incubated for 30 mins by competition PKA binding assay; format: functional, cell-based
[15] = test system: Mus musculus; assay: Analgesic activity in Kunming mouse assessed as increase in antinociceptive effect at 0.03 pmol, icv pre-treated with 10 nmol, icv NPFF receptor antagonist RF9 by radiant heat tail flick test; format: functional, organism-based
[16] = target: Mu-type opioid receptor (Homo sapiens, UniProt P35372); assay: Agonist activity at mu opioid receptor (unknown origin) expressed in HEK293-A cells assessed as inhibition of forskolin-stimulated cAMP accumulation incubated for 30 mins by competition PKA binding assay; format: functional, cell-based
[17] = test system: Mus musculus; assay: Analgesic activity in sc dosed Kunming mouse pre-treated with 5 nmol, icv peripherally restricted opioid receptor antagonist naloxone methiodide by radiant heat tail flick test; format: functional, organism-based
[18] = test system: Mus musculus; assay: Analgesic activity in sc dosed Kunming mouse pre-treated with 1 mg/kg, sc peripherally restricted opioid receptor antagonist naloxone methiodide by radiant heat tail flick test; format: functional, organism-based
[19] = test system: Mus musculus; assay: Analgesic activity in icv dosed Kunming mouse assessed as time duration during which supraspinal antinociception lasted by radiant heat tail flick test; format: functional
[20] = test system: Mus musculus; assay: Analgesic activity in sc dosed Kunming mouse pre-treated with 1 mg/kg, sc opioid receptor antagonist naloxone by radiant heat tail flick test; format: functional, organism-based
[21] = test system: Mus musculus; assay: Analgesic activity in Kunming mouse at 30 pmol, icv by radiant heat tail flick test; format: functional
[22] = test system: Mus musculus; assay: Analgesic activity in Kunming mouse at 0.09 umol/kg, sc by radiant heat tail flick test; format: functional; conditions: dose 0.09 µmol/kg
[23] = Toxicity in Kunming mouse assessed as increase in total travelled distance at 0.09 umol/kg, sc by open field assay; format: organism-based; conditions: in vivo, dose 0.09 µmol/kg
[24] = Safety index, ratio of ED50 for induction of constipation in sc dosed Kunming mouse to ED50 for analgesic activity in sc dosed Kunming mouse; format: organism-based; conditions: in vivo, read-out: Ratio ED50
[25] = Toxicity in Kunming mouse assessed as effect on motor coordination at 0.09 umol/kg, sc by rotarod test; format: organism-based; conditions: in vivo, dose 0.09 µmol/kg
[26] = Toxicity in Kunming mouse assessed as activation of reward circuits at 0.09 umol/kg, sc by CPP test; format: organism-based; conditions: in vivo, dose 0.09 µmol/kg
[27] = Induction of constipation in sc dosed Kunming mouse assessed as inhibition of gastrointestinal motility by charcoal based gastrointestinal motility test; format: organism-based; conditions: in vivo
[28] = Toxicity in Kunming mouse assessed as effect on motor coordination at 30 pmol, icv by rotarod test; conditions: in vivo, icv_or_intrathecal
[29] = Toxicity in Kunming mouse assessed as increase in jumping counts after naloxone-injection at 0.09 umol/kg, sc by naloxone-precipitated withdrawal test; format: organism-based; conditions: in vivo, dose 0.09 µmol/kg
[30] = Ratio of drug level in brain to plasma in mouse; format: ADME; conditions: read-out: BPR

Row | Structure (SMILES) | EC50 [1] | ED50 [2] | Activity [3] | EC50 [4] | ED50 [5] | half-life at 10 µM [6] | half-life at 10 µM [7] | Emax [8] | Time [9] | Activity [10] | EC50 ([11]; read-out: EC50) | Emax [12] | Emax [13] | EC50 [14] | Activity [15] | EC50 [16] | Time [19] | Kp [30] | other results
1 | N=C(N)NCCC[C@H](NC(=O)[C@H](CCC(N)=O)NC(=O)[C@@H]1CCCN1C(=O)[C@@H]1CSSC[C@H](NC(=O)[C@@H](N)Cc2ccc(O)cc2)C(=O)NCC(=O)N[C@@H](Cc2ccccc2)C(=O)N1)C(=O)N[C@@H](Cc1ccccc1)C(N)=O | 162 nM | 182 pmol | Active | 32.5 nM | 0.18 µmol/kg | 58 min | 28.9 min | 63.6% | 1.5 h | Active | 307 nM | 79.6% | 80.2% | 120 nM | Active | 788 nM |  |  | 
2 | N=C(N)NCCC[C@H](NC(=O)[C@H](CCC(N)=O)NC(=O)[C@@H]1CCCN1C(=O)[C@@H](CS)NC(=O)[C@H](Cc1ccccc1)NC(=O)CNC(=O)[C@H](CS)NC(=O)[C@@H](N)Cc1ccc(O)cc1)C(=O)N[C@@H](Cc1ccccc1)C(N)=O | 199 nM | 6.42 pmol | Active | 216 nM | 0.1 µmol/kg |  | 31.4 min | 50.4% | 3 h |  | 75.1 nM | 55.1% | 81.8% | 697 nM | Active | 178 nM | 3 h |  | Activity [17]: Active; Activity [18]: inactive; Activity [20]: inactive; EC50 ([11]; read-out: pEC50 (converted)): 74.1 nM
3 | N=C(N)NCCC[C@H](NC(=O)[C@H](CCC(N)=O)NC(=O)[C@@H]1CCCN1C(=O)[C@H]1CSSC[C@@H](NC(=O)[C@@H](N)Cc2ccc(O)cc2)C(=O)NCC(=O)N[C@@H](Cc2ccccc2)C(=O)N1)C(=O)N[C@@H](Cc1ccccc1)C(N)=O | 200 nM | 0.001 pmol | Active | 361 nM | 0.002 µmol/kg | 255 min | 14.6 min | 63.6% | 4 h | Active | 2460 nM | 74.6% | 75.6% | 192 nM | Active | 196 nM | 3 h |  | MPE [21]: 90%; Activity [22]: 80%; Activity [23]: Non-Toxic; Activity [5]: Dose-dependent effect; selectivity ratio [24]: 35; Activity [25]: Non-Toxic; Activity [26]: Toxic; Activity [27]: Dose-dependent effect; ED50 [27]: 0.07 µmol/kg; Activity [19]: Dose-dependent effect; Activity [28]: Non-Toxic; Activity [29]: Non-Toxic
4 | CN1CC[C@]23c4c5ccc(O)c4O[C@H]2[C@@H](O[C@@H]2O[C@H](C(=O)O)[C@@H](O)[C@H](O)[C@H]2O)C=C[C@H]3[C@H]1C5 [MORPHINE GLUCURONIDE] |  |  |  |  |  |  |  |  |  |  |  |  |  |  |  |  |  | 0.05 | 
5 | CN1CC[C@]23c4c5ccc(O)c4O[C@H]2[C@@H](O)C=C[C@H]3[C@H]1C5 [MORPHINE] |  |  |  |  |  |  |  |  |  |  |  |  |  |  |  |  |  | 0.74 | 
